The test system of assay [1] is KB. As to the kind of experiment: Cytotoxicity against human KB cells by MTT assay. The class given is functional. Background: Formazan colour is commonly taken as a measure of viable cells.
Assay [2] is described as follows: Cytotoxicity against human HEPA 59T/VGH cells by MTT assay. The class given is functional. To be noted: read-out: ED50 (the source's name).

In brackets after ≈: the same amount, converted by molar mass. Activity calls are given as the source filed them. The rule behind the calls is not given here.

On to `C=C1CC/C=C(\C)C[C@H](O)/C(C(C)C)=C\[C@H]2[C@H]1CC[C@]2(C)O` [SARCOPHYTOL L], for which the outcome in assay [1] was inactive. In assay [2], the EC50 was determined as 12.6 µg/mL (≈ 41.4 µM).
For `CC(=O)CC[C@@H]1C(=O)C=C(C(C)C)CC[C@@H]1C` [GIBBERODIONE], the EC50 in assay [1] (read-out: ED50 (the source's name)) and in assay [2] was more than 30 µg/mL throughout.
Turning to `CC(C)[C@]12C=C3[C@](C)(O)CC[C@]3(OO1)[C@@H](C)CC2` (relative stereo) [PEROXYGIBBEROL], the outcome in assay [1] was inactive. In assay [2], the EC50 was 8.2 µg/mL (≈ 32.5 µM).

(Values after ChEMBL document CHEMBL1141772, “Oxygenated terpenoids from a formosan soft coral Sinularia gibberosa” (2005).)
